Data from ChEMBL document CHEMBL1275513, “R chi-01, a new family of oxazolidinones that overcome ribosome-based linezolid resistance” (Antimicrob Agents Chemother, 2008).
Converted amounts (≈) assume the structure as drawn.

Tests used:
[1] = Inhibition of 50S ribosomal subunit purified from Staphylococcus aureus ATCC 29213 assessed as inhibition of translation using in vitro transcribed mRNA encoding firefly luciferase
[2] = test system: Staphylococcus aureus; experiment: Antimicrobial activity against linezolid-,erythromycin-resistant Staphylococcus aureus A7820 with G2576U mutation at 23s rRNA; type: functional
[3] = test system: Enterococcus faecium; experiment: Antimicrobial activity against linezolid-resistant Enterococcus faecium A6349 expressing VanA gene; type: functional
[4] = test system: Staphylococcus aureus; experiment: Antimicrobial activity against Staphylococcus aureus ATCC 29213; type: functional
[5] = test system: Enterococcus faecalis; experiment: Antimicrobial activity against Enterococcus faecalis ATCC 29212; type: functional
[6] = test system: Enterococcus faecalis; experiment: Antimicrobial activity against linezolid-resistant Enterococcus faecalis P5; type: functional
[7] = Selectivity ratio of IC50 for […] to IC50 for Staphylococcus aureus ATCC 29213 50S ribosomal subunit
[8] = molecular target: Bacterial 70S ribosome; experiment: Displacement of [3H]chloramphenicol from 70S ribosomal complex in Staphylococcus aureus ATCC 29213 by competitive binding assay
[9] = molecular target: Bacterial 70S ribosome; experiment: Displacement of [3H]puromycin from 70S ribosomal complex in Staphylococcus aureus ATCC 29213 by competitive binding assay
[10] = Inhibition of 50S ribosomal subunit purified from linezolid-,erythromycin-resistant Staphylococcus aureus A7820 with G2576U mutation in 23s rRNA assessed as inhibition of translation using in vitro transcribed mRNA encoding firefly luciferase

Row | Structure (SMILES) | IC50 [1] [µM] | MIC [2] [µg/mL] | MIC [3] [µg/mL] | MIC [4] [µg/mL] | MIC [5] [µg/mL] | MIC [6] [µg/mL] | ratio [7] | IC50 [8] [µM] | IC50 [9] [µM] | IC50 [10] [µM]
1 | CC(=O)NC[C@H]1CN(c2ccc(-c3ccc(CN)cc3)c(F)c2)C(=O)O1 | ≤ 0.02 | 8 (≈ 22.4 µM) | 1 (≈ 2.8 µM) | 4 (≈ 11.2 µM) | 0.5 (≈ 1.4 µM) | 8 (≈ 22.4 µM) | > 100 | 58 | – | –
2 | CC(=O)NC[C@H]1CN(c2ccc(-c3ccc(CNCC(N)=O)cc3)c(F)c2)C(=O)O1 | ≤ 0.02 | 8 (≈ 19.3 µM) | 1 (≈ 2.41 µM) | 4 (≈ 9.65 µM) | 0.5 (≈ 1.21 µM) | 8 (≈ 19.3 µM) | > 50 | – | – | –
3 | CC(=O)NC[C@H]1CN(c2ccc(-c3ccc(CNC(=N)N)cc3)c(F)c2)C(=O)O1 | ≤ 0.02 | 8 (≈ 20 µM) | 2 (≈ 5.01 µM) | 2 (≈ 5.01 µM) | 2 (≈ 5.01 µM) | 8 (≈ 20 µM) | > 100 | 50 | 8.7 | 0.08
4 | CC(=O)NC[C@H]1CN(c2ccc(-c3ccc(Cn4ncnn4)cc3)c(F)c2)C(=O)O1 | 0.06 | 1 (≈ 2.44 µM) | 0.5 (≈ 1.22 µM) | 0.5 (≈ 1.22 µM) | 0.25 (≈ 0.609 µM) | 1 (≈ 2.44 µM) | 23 | – | – | –
5 | CC(=O)NC[C@H]1CN(c2ccc(-c3ccc(CNCCCF)cc3)c(F)c2)C(=O)O1 | ≤ 0.02 | 8 (≈ 19.2 µM) | 1 (≈ 2.4 µM) | 1 (≈ 2.4 µM) | 0.5 (≈ 1.2 µM) | 2 (≈ 4.79 µM) | > 100 | 45 | – | 0.06
6 | CC(=O)NC[C@H]1CN(c2ccc(-c3ccc(Cn4ccnn4)cc3)c(F)c2)C(=O)O1 | 0.13 | 1 (≈ 2.44 µM) | 1 (≈ 2.44 µM) | 0.5 (≈ 1.22 µM) | 0.5 (≈ 1.22 µM) | 1 (≈ 2.44 µM) | > 100 | – | – | 0.21
7 | CC(=O)NC[C@H]1CN(c2ccc(-c3ccc(CNC(=O)/C=C/c4c(C)[nH]c(=O)[nH]c4=O)cc3)c(F)c2)C(=O)O1 | 0.09 | 8 (≈ 14.9 µM) | 1 (≈ 1.87 µM) | 0.25 (≈ 0.467 µM) | 1 (≈ 1.87 µM) | 16 (≈ 29.9 µM) | 17 | – | – | 0.03
8 | O=C(N[C@H](CO)[C@H](O)c1ccc([N+](=O)[O-])cc1)C(Cl)Cl [CHLORAMPHENICOL] | 7.8 | 64 (≈ 198 µM) | 24 (≈ 74.3 µM) | 8 (≈ 24.8 µM) | 8 (≈ 24.8 µM) | 32 (≈ 99 µM) | 25 | 0.43 | – | 54
9 | CS(=O)(=O)c1ccc([C@@H](O)[C@@H](CF)NC(=O)C(Cl)Cl)cc1 [FLORFENICOL] | 0.7 | 64 (≈ 179 µM) | 16 (≈ 44.7 µM) | 8 (≈ 22.3 µM) | 4 (≈ 11.2 µM) | 16 (≈ 44.7 µM) | > 100 | 20 | – | 16.4
10 | CC(=O)NC[C@H]1CN(c2ccc(N3CCOCC3)c(F)c2)C(=O)O1 [LINEZOLID] | 0.9 | 64 (≈ 190 µM) | 16 (≈ 47.4 µM) | – | – | 32 (≈ 94.9 µM) | > 100 | 1380 | 920 | 8.4
11 | COc1ccc(C[C@H](N)C(=O)N[C@H]2[C@@H](O)[C@H](n3cnc4c(N(C)C)ncnc43)O[C@@H]2CO)cc1 [PUROMYCIN] | – | – | – | – | – | – | – | – | 0.9 | –
12 | CC(=O)NC[C@H]1CN(c2ccc(-c3ccc(CNCc4cnn[nH]4)cc3)c(F)c2)C(=O)O1 [RADEZOLID] | 0.02 | 8 (≈ 18.2 µM) | 0.5 (≈ 1.14 µM) | 1 (≈ 2.28 µM) | 0.25 (≈ 0.57 µM) | 1 (≈ 2.28 µM) | > 100 | – | – | 0.03
13 | CSC[S@@+]([O-])CC(CO)NC(=O)/C=C/c1c(C)[nH]c(=O)[nH]c1=O (some centres undefined) [SPARSOMYCIN] | ≤ 0.02 | – | – | – | – | – | 7 | – | – | –
